Read-outs that look alike come from different tables or passages of the source.
Columns and labels:
[1] = tested on: BCRP-gene-transfected human colon cancer HCT116 cells (HCT116/BCRP cells); assay: Effect of overcoming anticancer agent resistance in vivo (oral administration), HCT116/BCRP xenograft with CPT-11; set-up: species or system BALB/c male nude mice
Procedure: To an inguinal region of each of 6-week-old BALB/c male nude mice (5 mice/group), BCRP-gene-transfected human colon cancer HCT116 cells (HCT116/BCRP cells) (obtained from Dr. Yoshikazu Sugimoto, The Cancer Chemotherapy Center of Japanese Foundation for Cancer Research) were subcutaneously transplanted (2×10^6 cells/0.1 mL/mouse). When the tumor volume as estimated from (1/2)ab^2 (a: longer tumor diameter, b: shorter tumor diameter) reached about 100 to 150 mm^3, each of the compounds of the present invention shown in Tables 1 to 4 and a positive control compound (i.e., Compound 14 ((Z)-2-(3,4-dimethoxy-phenyl)-3-{5-[4-(2-hydroxy-ethyl)-piperazin-1-yl]-thiophen-2-yl}-acrylonitrile hydrochloride)), disclosed in Patent Document 3 (WO 2006/106778)) (hereinafter referred to as Earlier Application Compound 14) was orally administered once a day for nine days (9 times in total). […] The dose of each of the compounds of the present invention was adjusted to 0.20 or 0.40 mmol/kg/day, and that of the positive control compound was adjusted to 0.23 or 0.46 mmol/kg/day. For administration, Compound 3 or 5 of the present invention was dissolved in 5% glucose solution, and Compound 4 or 6 was dissolved in Britton-Robinson buffer. […] A solvent was solely administered to a control group. On day 21 from start of administration, a tumor was extirpated from each mouse and weighed, and the tumor growth inhibition ratio IR (%) was derived from the following equation:
Tumor growth inhibition ratio IR (%)=(1−average tumor weight of each administration group/average tumor weight of control group)×100.

[2] = Solubility (HPLC quantification of supernatant); type: physicochemical; conditions: thermodynamic from solid, room temperature, stirred about 30 minutes, 100 mg/mL charged
Procedure: Each (10 mg) of the compounds of the present invention and Earlier Application Compound 14 shown in Table 5 was weighed and placed in a sealable container, and water or 5% glucose solution was added to the container in such an amount as to adjust the final concentration to 100 mg/mL. The contents of the container were stirred at room temperature for about 30 minutes, followed by centrifugation. The compound concentration of the supernatant recovered through centrifugation was quantified through high-performance liquid chromatography.

[3] = Solubility (HPLC quantification of supernatant); type: physicochemical; conditions: saline or isotonic, thermodynamic from solid; physiological saline, room temperature
[4] = compound 0.20 mmol/kg/day oral once a day for nine days + CPT-11 45 mg/kg/day i.v. day 1, 5, 9, day 21, vs control group
[5] = compound 0.20 mmol/kg/day oral once a day for nine days + CPT-11 45 mg/kg/day i.v. day 1, 5, 9, tumor weighed day 21
[6] = compound 0.40 mmol/kg/day oral once a day for nine days + CPT-11 45 mg/kg/day i.v. day 1, 5, 9, day 21, vs control group
[7] = compound 0.40 mmol/kg/day oral once a day for nine days + CPT-11 45 mg/kg/day i.v. day 1, 5, 9, tumor weighed day 21
[8] = saline or isotonic, 5% glucose solution, read-out: Solubility in 5% glucose
[9] = water, read-out: Solubility in water
[10] = positive control 100 mg/kg/day (0.23 mmol/kg/day) oral for nine days + CPT-11 45 mg/kg/day i.v. day 1, 5, 9, day 21
[11] = positive control 200 mg/kg/day (0.46 mmol/kg/day) oral for nine days + CPT-11 45 mg/kg/day i.v. day 1, 5, 9, day 21

solubility [2, 8] | solubility [2, 9] | solubility [3] | SMILES | Tumor growth inhibition ratio IR (%) [1, 4] | Tumor weight (g) Mean ± S.D. [1, 5] | Tumor growth inhibition ratio IR (%) [1, 6] | Tumor weight (g) Mean ± S.D. [1, 7] | also measured
 |  |  | COc1ccc(/C(C#N)=C/c2ccc(N3CCC(OC(=O)CN4CCCCC4)CC3)s2)cc1OC.Cl [Compound 3, piperidin-1-yl-acetic acid 1-[5-[(Z)-2-cyano-2-(3,4-dimethoxy-phenyl)-vinyl]-thiophen-2-yl]-piperidin-4-yl ester hydrochloride] | 51.9% | 0.73 ± 0.07 g | 54.7% | 0.65 ± 0.11 g | 
 |  |  | COc1ccc(/C(C#N)=C/c2ccc(N3CCC(OC(=O)CN4CCC(O)CC4)CC3)s2)cc1OC.Cl [Compound 4, (4-hydroxy-piperidin-1-yl)-acetic acid 1-[5-[(Z)-2-cyano-2-(3,4-dimethoxy-phenyl)-vinyl]-thiophen-2-yl]-piperidin-4-yl ester hydrochloride] | 31.8% | 0.89 ± 0.09 g | 46.4% | 0.70 ± 0.11 g | 
≥ 100 mg/mL | ≥ 100 mg/mL | 100 mg/mL | COc1ccc(/C(C#N)=C/c2ccc(N3CCC(OC(=O)CN4CCCCC4)CC3)s2)cc1OC.CS(=O)(=O)O [Compound 5, piperidin-1-yl-acetic acid 1-[5-[(Z)-2-cyano-2-(3,4-dimethoxy-phenyl)-vinyl]-thiophen-2-yl]-piperidin-4-yl ester methanesulfonate] | 50.9% | 0.73 ± 0.12 g | 55.9% | 0.65 ± 0.16 g | 
 |  |  | COc1ccc(/C(C#N)=C/c2ccc(N3CCC(OC(=O)CN4CCC(O)CC4)CC3)s2)cc1OC.CS(=O)(=O)O [Compound 6, (4-hydroxy-piperidin-1-yl)-acetic acid 1-[5-[(Z)-2-cyano-2-(3,4-dimethoxy-phenyl)-vinyl]-thiophen-2-yl]-piperidin-4-yl ester methanesulfonate] | 36.9% | 0.82 ± 0.04 g | 41.8% | 0.76 ± 0.09 g | 
≥ 100 mg/mL | ≥ 100 mg/mL |  | COc1ccc(/C(C#N)=C/c2ccc(N3CCC(OC(=O)CN4CCC4)CC3)s2)cc1OC.CS(=O)(=O)O [Compound 8, azetidin-1-yl-acetic acid 1-[5-[(Z)-2-cyano-2-(3,4-dimethoxy-phenyl)-vinyl]-thiophen-2-yl]-piperidin-4-yl ester methanesulfonate] |  |  |  |  | 
≥ 100 mg/mL | ≥ 100 mg/mL |  | COc1ccc(/C(C#N)=C/c2ccc(N3CCC(OC(=O)CN4CCCC4)CC3)s2)cc1OC.CS(=O)(=O)O [Compound 10, pyrrolidin-1-yl-acetic acid 1-[5-[(Z)-2-cyano-2-(3,4-dimethoxy-phenyl)-vinyl]-thiophen-2-yl]-piperidin-4-yl ester methanesulfonate] |  |  |  |  | 
≥ 100 mg/mL | ≥ 100 mg/mL | 100 mg/mL | COc1ccc(/C(C#N)=C/c2ccc(N3CCC(OC(=O)CN4CCCCC4C)CC3)s2)cc1OC.CS(=O)(=O)O (stereo not drawn) [Compound 12, (2-methyl-piperidin-1-yl)-acetic acid 1-[5-[(Z)-2-cyano-2-(3,4-dimethoxy-phenyl)-vinyl]-thiophen-2-yl]-piperidin-4-yl ester methanesulfonate] |  |  |  |  | 
≥ 100 mg/mL | ≥ 100 mg/mL | 100 mg/mL | COc1ccc(/C(C#N)=C/c2ccc(N3CCC(OC(=O)CN4CCCC(CO)C4)CC3)s2)cc1OC.CS(=O)(=O)O (stereo not drawn) [Compound 14, (3-hydroxymethyl-piperidin-1-yl)-acetic acid 1-[5-[(Z)-2-cyano-2-(3,4-dimethoxy-phenyl)-vinyl]-thiophen-2-yl]-piperidin-4-yl ester methanesulfonate] |  |  |  |  | 
≥ 100 mg/mL | ≥ 100 mg/mL |  | COc1ccc(/C(C#N)=C/c2ccc(N3CCC(OC(=O)CN4CCCCCC4)CC3)s2)cc1OC.CS(=O)(=O)O [Compound 16, azepan-1-yl-acetic acid 1-[5-[(Z)-2-cyano-2-(3,4-dimethoxy-phenyl)-vinyl]-thiophen-2-yl]-piperidin-4-yl ester methanesulfonate] |  |  |  |  | 
≥ 100 mg/mL | ≥ 100 mg/mL |  | COc1ccc(/C(C#N)=C/c2ccc(N3CCC(OC(=O)CN4CCCCCCC4)CC3)s2)cc1OC.CS(=O)(=O)O [Compound 18, azocan-1-yl-acetic acid 1-[5-[(Z)-2-cyano-2-(3,4-dimethoxy-phenyl)-vinyl]-thiophen-2-yl]-piperidin-4-yl ester methanesulfonate] |  |  |  |  | 
≥ 100 mg/mL | ≥ 100 mg/mL | 100 mg/mL | COc1ccc(/C(C#N)=C/c2ccc(N3CCC(OC(=O)CN4CCN(C)CC4)CC3)s2)cc1OC.CS(=O)(=O)O [Compound 20, (4-methyl-piperazin-1-yl)-acetic acid 1-[5-[(Z)-2-cyano-2-(3,4-dimethoxy-phenyl)-vinyl]-thiophen-2-yl]-piperidin-4-yl ester methanesulfonate] |  |  |  |  | 
≥ 100 mg/mL | ≥ 100 mg/mL |  | COc1ccc(/C(C#N)=C/c2ccc(N3CCC(OC(=O)CN4CCOCC4)CC3)s2)cc1OC.CS(=O)(=O)O [Compound 22, morpholin-4-yl-acetic acid 1-[5-[(Z)-2-cyano-2-(3,4-dimethoxy-phenyl)-vinyl]-thiophen-2-yl]-piperidin-4-yl ester methanesulfonate] |  |  |  |  | 

SMILES | solubility [2, 8] | solubility [2, 9] | solubility [3] | Tumor growth inhibition ratio IR (%) [1, 4] | Tumor weight (g) Mean ± S.D. [1, 5] | Tumor growth inhibition ratio IR (%) [1, 6] | Tumor weight (g) Mean ± S.D. [1, 7] | also measured
COc1ccc(/C(C#N)=C/c2ccc(N3CCN(CCO)CC3)s2)cc1OC.Cl [EAC 14, (Z)-2-(3,4-dimethoxy-phenyl)-3-{5-[4-(2-hydroxy-ethyl)-piperazin-1-yl]-thiophen-2-yl}-acrylonitrile hydrochloride, reference compound] | 6.6 mg/mL | 6.6 mg/mL | < 1 mg/mL |  |  |  |  | Tumor growth inhibition ratio IR (%) [1, 10]: 23.9%; Tumor weight (g) Mean ± S.D. [1, 10]: 1.04 ± 0.17 g; Tumor growth inhibition ratio IR (%) [1, 11]: 35.6%; Tumor weight (g) Mean ± S.D. [1, 11]: 0.88 ± 0.14 g
